Active and inactive are the calls of the source. The rule behind the calls is not given here.
Columns and labels:
[1] = target: T1, Protein cereblon/E3 ubiquitin-protein ligase RING2 (Homo sapiens, UniProt Q96SW2+Q99496); test: PROTAC activity at CRBN/RING1B in human K562 cells assessed as degradation of RING1B protein expression incubated for 24 hrs by Western blotting analysis; assay type: cell-based
[2] = target: T2, Protein cereblon/Polycomb protein EED (Homo sapiens, UniProt O75530+Q96SW2); test: PROTAC activity at CRBN/EED in human K562 cells assessed as degradation of EED protein expression incubated for 24 hrs by Western blotting analysis; assay type: cell-based
[3] = target: T3, Protein cereblon/Histone-lysine N-methyltransferase EZH2 (Homo sapiens) (UniProt Q15910+Q96SW2); test: PROTAC activity at CRBN/EZH2 in human K562 cells assessed as degradation of EZH2 protein expression at 0.1 to 10 uM incubated for 24 hrs by Western blotting analysis; assay type: cell-based; details: dose 0.1-10 µM
T3 sequence (Q15910 whole entry, looked up): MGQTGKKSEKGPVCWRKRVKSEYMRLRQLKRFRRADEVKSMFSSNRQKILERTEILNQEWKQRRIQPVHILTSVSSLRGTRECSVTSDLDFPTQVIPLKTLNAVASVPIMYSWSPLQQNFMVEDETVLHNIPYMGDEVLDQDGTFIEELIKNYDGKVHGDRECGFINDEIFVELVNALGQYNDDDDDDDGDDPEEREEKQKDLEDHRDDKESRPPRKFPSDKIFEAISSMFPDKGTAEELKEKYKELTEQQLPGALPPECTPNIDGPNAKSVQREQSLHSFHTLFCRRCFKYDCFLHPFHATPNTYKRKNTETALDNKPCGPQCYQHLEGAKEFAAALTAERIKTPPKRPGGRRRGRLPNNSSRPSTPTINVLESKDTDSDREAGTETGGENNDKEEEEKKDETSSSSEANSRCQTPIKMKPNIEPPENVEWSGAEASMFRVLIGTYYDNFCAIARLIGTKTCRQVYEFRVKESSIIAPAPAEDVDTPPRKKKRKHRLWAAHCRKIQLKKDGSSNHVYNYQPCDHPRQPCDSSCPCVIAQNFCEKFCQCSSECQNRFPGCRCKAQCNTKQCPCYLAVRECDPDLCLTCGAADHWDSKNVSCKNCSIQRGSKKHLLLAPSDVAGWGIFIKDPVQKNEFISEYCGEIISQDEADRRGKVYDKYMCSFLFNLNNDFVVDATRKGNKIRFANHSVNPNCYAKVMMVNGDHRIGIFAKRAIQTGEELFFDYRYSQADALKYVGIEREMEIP
T3 sequence (Q96SW2 whole entry, looked up): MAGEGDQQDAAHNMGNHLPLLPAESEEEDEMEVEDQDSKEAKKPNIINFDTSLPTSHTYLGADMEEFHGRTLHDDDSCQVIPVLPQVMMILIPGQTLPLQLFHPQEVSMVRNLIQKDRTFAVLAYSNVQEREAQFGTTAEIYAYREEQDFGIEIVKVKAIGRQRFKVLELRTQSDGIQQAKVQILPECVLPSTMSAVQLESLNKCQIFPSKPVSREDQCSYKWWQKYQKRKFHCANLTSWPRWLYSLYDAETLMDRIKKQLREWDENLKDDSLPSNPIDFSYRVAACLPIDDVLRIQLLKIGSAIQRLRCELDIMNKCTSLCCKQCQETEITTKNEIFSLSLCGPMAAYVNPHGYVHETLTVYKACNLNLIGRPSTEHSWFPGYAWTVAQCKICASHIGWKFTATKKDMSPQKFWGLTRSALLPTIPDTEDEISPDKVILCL

[4] = tested on: K562; test: Induction of PRC1 degradation in human K562 cells assessed as reduction of H2AK119ub chromatin mark at 0.1 to 10 uM incubated for 24 hrs by Western blotting analysis; assay type: cell-based; details: dose 0.1-10 µM
[5] = target: T4, Protein cereblon/Polycomb complex protein BMI-1 (Homo sapiens, UniProt Q96SW2+P35226); test: PROTAC activity at […] in human K562 cells assessed as degradation of BMI1 protein expression at 10 uM measured after 4 hrs by Western blotting analysis; assay type: cell-based
T4 sequence (P35226 whole entry, looked up): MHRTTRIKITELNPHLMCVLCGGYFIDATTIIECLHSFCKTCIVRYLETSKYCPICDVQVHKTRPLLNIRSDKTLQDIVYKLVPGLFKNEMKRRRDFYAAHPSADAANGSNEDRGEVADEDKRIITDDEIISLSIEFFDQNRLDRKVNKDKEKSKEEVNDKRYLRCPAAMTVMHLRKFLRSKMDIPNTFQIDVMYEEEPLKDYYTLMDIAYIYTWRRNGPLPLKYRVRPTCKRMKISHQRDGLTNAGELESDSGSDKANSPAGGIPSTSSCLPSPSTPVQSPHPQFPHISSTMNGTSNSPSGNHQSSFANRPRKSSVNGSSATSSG
T4 sequence (Q96SW2 whole entry, looked up): as the sequence (Q96SW2 whole entry, looked up) above

[6] = target: Protein cereblon/YY1-associated factor 2 (Homo sapiens) (UniProt Q96SW2+Q8IY57); test: PROTAC activity at CRBN/YAF in human K562 cells assessed as degradation of YAF protein expression at 1 to 10 uM incubated for 24 hrs by Western blotting analysis; assay type: cell-based; details: dose 1-10 µM
Protein cereblon/YY1-associated factor 2 (Homo sapiens), sequence (Q8IY57 whole entry, looked up): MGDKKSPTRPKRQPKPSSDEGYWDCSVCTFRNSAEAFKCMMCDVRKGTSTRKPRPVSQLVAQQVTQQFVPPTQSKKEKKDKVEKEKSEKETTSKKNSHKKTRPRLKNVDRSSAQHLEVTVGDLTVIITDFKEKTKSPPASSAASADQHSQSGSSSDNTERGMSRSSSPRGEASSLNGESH
Protein cereblon/YY1-associated factor 2 (Homo sapiens), sequence (Q96SW2 whole entry, looked up): as the sequence (Q96SW2 whole entry, looked up) above

[7] = target: T4, Protein cereblon/Polycomb complex protein BMI-1; test: PROTAC activity at […] in human K562 cells assessed as degradation of BMI1 protein expression at 10 uM incubated for 20 hrs in presence of MG132 by Western blotting analysis; assay type: cell-based
[8] = target: T1, Protein cereblon/E3 ubiquitin-protein ligase RING2; test: PROTAC activity at CRBN/RING1B in human K562 cells assessed as degradation of RING1B protein expression at 10 uM incubated for 20 hrs in presence of EED226 by Western blotting analysis; assay type: cell-based
Target sequence in this assay (Q96SW2 whole entry): as the sequence (Q96SW2 whole entry, looked up) above
Target sequence in this assay (Q99496 2-336 partner limits assumed): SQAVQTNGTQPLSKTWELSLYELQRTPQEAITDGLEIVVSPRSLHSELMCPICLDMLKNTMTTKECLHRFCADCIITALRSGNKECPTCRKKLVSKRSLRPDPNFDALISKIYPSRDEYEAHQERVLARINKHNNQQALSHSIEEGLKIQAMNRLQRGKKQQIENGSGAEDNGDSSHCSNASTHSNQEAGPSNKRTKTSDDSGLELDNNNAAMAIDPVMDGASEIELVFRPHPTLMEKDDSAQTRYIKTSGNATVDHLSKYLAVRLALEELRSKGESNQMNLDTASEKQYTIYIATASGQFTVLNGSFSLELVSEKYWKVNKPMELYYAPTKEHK

[9] = target: T1, Protein cereblon/E3 ubiquitin-protein ligase RING2; test: PROTAC activity at CRBN/RING1B in human K562 cells assessed as degradation of RING1B protein expression at 10 uM incubated for 20 hrs in presence of pomalidomide by Western blotting analysis; assay type: cell-based
Target sequence in this assay (Q96SW2 whole entry): as the sequence (Q96SW2 whole entry, looked up) above
Target sequence in this assay (Q99496 2-336 partner limits assumed): as the sequence (Q99496 2-336 partner limits assumed) above

[10] = target: T1, Protein cereblon/E3 ubiquitin-protein ligase RING2; test: PROTAC activity at CRBN/RING1B in human K562 cells assessed as degradation of RING1B protein expression at 10 uM incubated for 20 hrs in presence of MLN4924 by Western blotting analysis; assay type: cell-based
Target sequence in this assay (Q96SW2 whole entry): as the sequence (Q96SW2 whole entry, looked up) above
Target sequence in this assay (Q99496 2-336 partner limits assumed): as the sequence (Q99496 2-336 partner limits assumed) above

[11] = target: T1, Protein cereblon/E3 ubiquitin-protein ligase RING2; test: PROTAC activity at CRBN/RING1B in human K562 cells assessed as degradation of RING1B protein expression at 10 uM incubated for 20 hrs in presence of MG132 by Western blotting analysis; assay type: cell-based
Target sequence in this assay (Q96SW2 whole entry): as the sequence (Q96SW2 whole entry, looked up) above
Target sequence in this assay (Q99496 2-336 partner limits assumed): as the sequence (Q99496 2-336 partner limits assumed) above

[12] = target: Protein cereblon/Zinc finger protein Aiolos (Homo sapiens) (UniProt Q96SW2+Q9UKT9); test: PROTAC activity at CRBN/IKZF3 in human K562 cells assessed as degradation of IKZF3 protein at 0.1 to 10 uM incubated for 4 hrs by Western blotting analysis; assay type: cell-based; details: dose 0.1-10 µM
[13] = target: T2, Protein cereblon/Polycomb protein EED; test: PROTAC activity at CRBN/EED in human K562 cells assessed as degradation of EED mRNA expression at 10 uM incubated for 20 hrs by RT-qPCR analysis; assay type: cell-based
Target sequence in this assay (O75530 2-441 limits assumed): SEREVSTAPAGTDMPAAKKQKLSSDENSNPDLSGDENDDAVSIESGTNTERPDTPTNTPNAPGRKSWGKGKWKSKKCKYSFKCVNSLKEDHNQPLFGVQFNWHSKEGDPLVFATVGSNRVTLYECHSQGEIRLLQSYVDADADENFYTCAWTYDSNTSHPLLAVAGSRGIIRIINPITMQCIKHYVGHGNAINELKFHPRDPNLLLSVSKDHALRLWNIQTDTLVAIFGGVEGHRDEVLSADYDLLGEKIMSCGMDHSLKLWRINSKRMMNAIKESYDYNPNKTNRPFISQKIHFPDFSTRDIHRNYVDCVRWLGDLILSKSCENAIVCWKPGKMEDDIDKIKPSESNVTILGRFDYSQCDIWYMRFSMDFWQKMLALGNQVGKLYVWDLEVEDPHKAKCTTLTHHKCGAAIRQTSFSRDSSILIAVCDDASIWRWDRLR
Target sequence in this assay (Q96SW2 whole entry partner): as the sequence (Q96SW2 whole entry, looked up) above

[14] = tested on: K562; test: Antiproliferative activity against human K562 cells assessed as cell growth inhibition incubated for 7 days by WST-8 assay; assay type: functional; details: K562, 168 h, time 7 day
[15] = target: T1, Protein cereblon/E3 ubiquitin-protein ligase RING2; test: PROTAC activity at CRBN/RING1B in human 786-0 cells with defective VHL assessed as degradation of RING1B protein expression at 10 uM incubated for 24 hrs by Western blotting analysis; assay type: cell-based
Target sequence in this assay (Q96SW2 whole entry): as the sequence (Q96SW2 whole entry, looked up) above
Target sequence in this assay (Q99496 2-336 partner limits assumed): as the sequence (Q99496 2-336 partner limits assumed) above

[16] = tested on: 786-0; test: Induction of PRC2 degradation in human 786-0 cells with defective VHL assessed as reduction of H3K27me3 chromatin mark at 10 uM incubated for 24 hrs by Western blotting analysis; assay type: cell-based
[17] = tested on: 786-0; test: Induction of PRC1 degradation in human 786-0 cells with defective VHL assessed as reduction of H2AK119ub chromatin mark at 10 uM incubated for 24 hrs by Western blotting analysis; assay type: cell-based
[18] = tested on: 786-0; test: Antiproliferative activity against human 786-0 cells assessed as inhibition of cell growth at 15 uM incubated for 7 days by WST-8 assay; assay type: functional, cell-based; details: time 7.0 day
[19] = target: T3, Protein cereblon/Histone-lysine N-methyltransferase EZH2 (Homo sapiens); test: PROTAC activity at CRBN/EZH2 in human PC-3M cells assessed as degradation of EZH2 protein expression at 0.2 to 5 uM incubated for 24 hrs by Western blotting analysis; assay type: cell-based; details: dose 0.2-5 µM
[20] = target: T4, Protein cereblon/Polycomb complex protein BMI-1; test: PROTAC activity at CRBN/BIM1 in human PC-3M cells assessed as degradation of BMI1 protein expression at 1 uM incubated for 24 hrs by Western blotting analysis; assay type: cell-based
[21] = target: T4, Protein cereblon/Polycomb complex protein BMI-1; test: PROTAC activity at CRBN/BIM1 in human PC-3M cells assessed as degradation of BMI1 protein expression at 5 uM incubated for 24 hrs by Western blotting analysis; assay type: cell-based
[22] = tested on: PC-3M; test: Induction of PRC2 degradation in human PC-3M cells assessed as reduction of H3K27me3 chromatin mark at 1 uM incubated for 24 hrs by Western blotting analysis; assay type: cell-based
[23] = tested on: PC-3M; test: Induction of PRC2 degradation in human PC-3M cells assessed as reduction of H3K27me3 chromatin mark at 5 uM incubated for 24 hrs by Western blotting analysis; assay type: cell-based
[24] = tested on: PC-3M; test: Induction of PRC1 degradation in human PC-3M cells assessed as reduction of H2AK119ub chromatin mark at 1 uM incubated for 24 hrs by Western blotting analysis; assay type: cell-based
[25] = tested on: PC-3M; test: Inhibition of colony formation in human PC-3M cells at 1 to 10 uM incubated for 14 days by crystal violet staining based assay; assay type: functional, cell-based; details: dose 1-10 µM, time 14.0 day
[26] = target: T4, Protein cereblon/Polycomb complex protein BMI-1; test: PROTAC activity at CRBN/BIM1 in human MDA-MB-468 cells assessed as degradation of BMI1 protein expression at 5 uM incubated for 24 hrs by Western blotting analysis; assay type: cell-based
[27] = target: T3, Protein cereblon/Histone-lysine N-methyltransferase EZH2 (Homo sapiens); test: PROTAC activity at CRBN/EZH2 in human MDA-MB-468 cells assessed as degradation of EZH2 protein expression at 5 uM incubated for 24 hrs by Western blotting analysis; assay type: cell-based
[28] = tested on: MDA-MB-468; test: Induction of PRC2 degradation in human MDA-MB-468 cells assessed as reduction of H3K27me3 chromatin mark at 5 uM incubated for 24 hrs by Western blotting analysis; assay type: cell-based
[29] = tested on: MDA-MB-468; test: Induction of PRC1 degradation in human MDA-MB-468 cells assessed as reduction of H2AK119ub chromatin mark at 5 uM incubated for 24 hrs by Western blotting analysis; assay type: cell-based
[30] = tested on: MDA-MB-468; test: Inhibition of colony formation in human MDA-MB-468 cells at 1 to 10 uM incubated for 14 days by crystal violet staining based assay; assay type: functional, cell-based; details: dose 1-10 µM, time 14.0 day
[31] = Drug concentration in Swiss albino mouse plasma at 50 mg/kg,ip administration measured after 2 hrs by LC-MS/MS analysis; assay type: ADME, organism-based

In the case of `O=C(CNc1cccc2c1C(=O)N(C1CCC(=O)NC1=O)C2=O)NCCCCN1CCN(c2ccc(-c3cnc(NCc4ccco4)n4cnnc34)cc2)CC1` (stereo unspecified), the DC50 [1] is reported as 1.3 µM, the DC50 [2] is reported as 3.3 µM and the Activity [3] is reported as “Active”. For the same molecule, the Activity [4] was “Active”, the Activity [5] was “Active” and the Activity [6] was “inactive”. The Activity [7] was “inactive”, the Activity [8] was “inactive” and the Activity [9] was “inactive”. For the same molecule, the Activity [10] was “inactive”, the Activity [11] was “inactive” and the Activity [12] was “inactive”. The Activity [13] was “inactive”, the GI50 [14] was 3.7 µM and the Activity [15] was “Active”. For the same molecule, the Activity [16] was “inactive”, the Activity [17] was “Active” and the Activity [18] was “Active”. For the same molecule, the Activity [19] was “inactive”, the Activity [20] was “Active” and the Activity [21] was “Active”. For the same molecule, the Activity [22] was “inactive”, the Activity [23] was “inactive” and the Activity [24] was “Active”. The inhibition [25] was “Active”, the Activity [26] was “Active” and the Activity [27] was “inactive”. For the same molecule, the Activity [28] was “inactive”, the Activity [29] was “Active” and the inhibition [30] was “Active”. The concentration at 2 h [31] was greater than 1000 nM.

Reference: ChEMBL document CHEMBL5543147, “Discovery and Characterization of a Novel Cereblon-Recruiting PRC1 Bridged PROTAC Degrader” (J Med Chem, 2024)
